Reference: ChEMBL document CHEMBL3991601, “The target landscape of clinical kinase drugs” (Science, 2017)
The source made the active and inactive calls. Rule as the data show it, for most assays here: actives have a measured Kd and inactives only a lower limit.

What was measured:
[1] = target: T1, Serine/threonine-protein kinase 4 (Homo sapiens, UniProt Q13043)
T1 sequence (Q13043 whole entry): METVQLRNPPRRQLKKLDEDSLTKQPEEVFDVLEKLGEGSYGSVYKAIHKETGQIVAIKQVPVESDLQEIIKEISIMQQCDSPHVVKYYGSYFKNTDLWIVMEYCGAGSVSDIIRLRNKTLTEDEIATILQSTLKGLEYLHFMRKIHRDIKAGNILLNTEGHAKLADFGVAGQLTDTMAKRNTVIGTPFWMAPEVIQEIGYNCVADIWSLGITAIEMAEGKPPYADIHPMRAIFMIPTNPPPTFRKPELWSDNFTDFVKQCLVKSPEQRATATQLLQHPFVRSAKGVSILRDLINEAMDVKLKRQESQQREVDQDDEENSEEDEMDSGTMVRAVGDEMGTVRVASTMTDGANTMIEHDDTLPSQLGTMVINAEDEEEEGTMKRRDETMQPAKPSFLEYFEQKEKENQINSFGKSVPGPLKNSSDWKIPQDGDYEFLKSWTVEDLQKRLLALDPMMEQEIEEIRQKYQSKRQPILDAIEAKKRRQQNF

[2] = target: T2, Mitogen-activated protein kinase kinase kinase 5 (Homo sapiens, UniProt Q99683)
T2 sequence (Q99683 whole entry): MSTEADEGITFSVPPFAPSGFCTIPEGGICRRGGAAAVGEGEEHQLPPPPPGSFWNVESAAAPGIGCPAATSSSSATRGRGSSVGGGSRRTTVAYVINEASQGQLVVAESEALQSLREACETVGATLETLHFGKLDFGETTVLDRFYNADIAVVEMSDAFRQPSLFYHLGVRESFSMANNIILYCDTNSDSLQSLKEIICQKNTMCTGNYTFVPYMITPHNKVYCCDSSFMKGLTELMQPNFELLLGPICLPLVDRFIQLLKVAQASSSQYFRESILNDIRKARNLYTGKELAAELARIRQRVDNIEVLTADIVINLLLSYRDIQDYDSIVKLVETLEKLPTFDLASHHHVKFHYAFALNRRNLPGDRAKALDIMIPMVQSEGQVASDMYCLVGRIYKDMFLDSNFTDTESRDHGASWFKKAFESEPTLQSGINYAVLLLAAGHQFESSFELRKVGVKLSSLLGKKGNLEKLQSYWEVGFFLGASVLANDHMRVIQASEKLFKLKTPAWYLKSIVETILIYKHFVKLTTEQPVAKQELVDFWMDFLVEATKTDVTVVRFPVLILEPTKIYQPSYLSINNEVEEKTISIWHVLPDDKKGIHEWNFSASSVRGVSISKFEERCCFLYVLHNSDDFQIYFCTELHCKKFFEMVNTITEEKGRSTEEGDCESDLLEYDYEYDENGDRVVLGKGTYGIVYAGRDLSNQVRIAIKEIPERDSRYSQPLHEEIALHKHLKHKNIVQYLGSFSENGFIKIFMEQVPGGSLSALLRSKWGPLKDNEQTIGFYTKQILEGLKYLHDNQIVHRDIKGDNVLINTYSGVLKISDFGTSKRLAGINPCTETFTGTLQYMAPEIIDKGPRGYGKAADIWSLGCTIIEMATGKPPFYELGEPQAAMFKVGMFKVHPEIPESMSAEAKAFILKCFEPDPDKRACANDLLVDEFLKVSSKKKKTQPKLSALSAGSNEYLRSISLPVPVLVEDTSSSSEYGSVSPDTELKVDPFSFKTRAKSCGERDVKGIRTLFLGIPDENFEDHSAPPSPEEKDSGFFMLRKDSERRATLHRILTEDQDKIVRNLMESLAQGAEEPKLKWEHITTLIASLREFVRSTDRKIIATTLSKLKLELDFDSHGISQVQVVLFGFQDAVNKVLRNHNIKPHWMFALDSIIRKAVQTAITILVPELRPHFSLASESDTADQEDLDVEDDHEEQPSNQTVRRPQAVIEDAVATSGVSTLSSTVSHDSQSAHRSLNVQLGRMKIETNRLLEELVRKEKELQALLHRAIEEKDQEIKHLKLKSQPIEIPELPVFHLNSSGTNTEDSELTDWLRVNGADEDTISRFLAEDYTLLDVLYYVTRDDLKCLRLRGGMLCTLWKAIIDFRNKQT

[3] = target: Glycogen synthase kinase-3 alpha (Homo sapiens, UniProt P49840)
Glycogen synthase kinase-3 alpha, sequence (P49840 whole entry): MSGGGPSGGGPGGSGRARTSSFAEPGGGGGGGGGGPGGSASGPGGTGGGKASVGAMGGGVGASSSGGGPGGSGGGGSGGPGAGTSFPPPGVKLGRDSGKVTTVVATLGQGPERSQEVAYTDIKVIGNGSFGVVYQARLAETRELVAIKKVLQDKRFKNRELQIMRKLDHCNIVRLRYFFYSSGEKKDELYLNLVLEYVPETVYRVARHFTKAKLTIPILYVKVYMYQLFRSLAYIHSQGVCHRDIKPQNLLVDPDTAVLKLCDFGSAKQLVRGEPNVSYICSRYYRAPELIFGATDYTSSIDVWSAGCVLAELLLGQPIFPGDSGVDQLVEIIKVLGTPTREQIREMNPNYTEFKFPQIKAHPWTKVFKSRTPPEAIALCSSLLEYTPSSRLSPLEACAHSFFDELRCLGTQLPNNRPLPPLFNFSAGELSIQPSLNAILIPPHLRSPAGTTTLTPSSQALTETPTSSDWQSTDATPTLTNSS

[4] = target: Bone morphogenetic protein receptor type-1A (Homo sapiens, UniProt P36894)
Bone morphogenetic protein receptor type-1A, sequence (P36894 whole entry): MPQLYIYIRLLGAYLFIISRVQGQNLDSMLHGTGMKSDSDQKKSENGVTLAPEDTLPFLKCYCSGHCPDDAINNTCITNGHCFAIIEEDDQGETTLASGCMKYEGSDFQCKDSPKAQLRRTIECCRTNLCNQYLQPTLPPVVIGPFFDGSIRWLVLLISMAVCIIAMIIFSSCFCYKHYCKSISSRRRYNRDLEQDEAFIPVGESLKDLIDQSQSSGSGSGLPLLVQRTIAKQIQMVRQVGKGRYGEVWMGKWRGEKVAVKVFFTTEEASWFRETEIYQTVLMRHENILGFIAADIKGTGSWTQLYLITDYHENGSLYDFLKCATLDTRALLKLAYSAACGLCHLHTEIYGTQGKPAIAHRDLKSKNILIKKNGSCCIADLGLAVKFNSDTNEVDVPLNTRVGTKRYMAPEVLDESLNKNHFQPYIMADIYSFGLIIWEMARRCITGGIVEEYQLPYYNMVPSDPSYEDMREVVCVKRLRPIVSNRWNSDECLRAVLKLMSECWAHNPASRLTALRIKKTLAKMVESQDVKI

[5] = target: Serine/threonine-protein kinase 26 (Homo sapiens, UniProt Q9P289)
Serine/threonine-protein kinase 26, sequence (Q9P289 whole entry, canonical isoform): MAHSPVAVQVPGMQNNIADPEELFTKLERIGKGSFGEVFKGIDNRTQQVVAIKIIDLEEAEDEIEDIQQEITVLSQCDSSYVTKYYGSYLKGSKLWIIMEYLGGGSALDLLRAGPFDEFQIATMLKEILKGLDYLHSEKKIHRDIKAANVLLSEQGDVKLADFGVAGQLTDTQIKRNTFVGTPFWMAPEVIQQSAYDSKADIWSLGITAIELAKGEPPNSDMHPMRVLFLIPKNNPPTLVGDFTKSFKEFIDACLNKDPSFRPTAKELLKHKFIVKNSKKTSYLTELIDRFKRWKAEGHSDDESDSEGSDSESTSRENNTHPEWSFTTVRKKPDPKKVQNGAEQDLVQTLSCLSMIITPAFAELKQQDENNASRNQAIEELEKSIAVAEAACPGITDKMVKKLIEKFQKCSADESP

[6] = target: S-adenosylmethionine synthase isoform type-2 (Homo sapiens, UniProt P31153)
S-adenosylmethionine synthase isoform type-2, sequence (P31153 whole entry, canonical isoform): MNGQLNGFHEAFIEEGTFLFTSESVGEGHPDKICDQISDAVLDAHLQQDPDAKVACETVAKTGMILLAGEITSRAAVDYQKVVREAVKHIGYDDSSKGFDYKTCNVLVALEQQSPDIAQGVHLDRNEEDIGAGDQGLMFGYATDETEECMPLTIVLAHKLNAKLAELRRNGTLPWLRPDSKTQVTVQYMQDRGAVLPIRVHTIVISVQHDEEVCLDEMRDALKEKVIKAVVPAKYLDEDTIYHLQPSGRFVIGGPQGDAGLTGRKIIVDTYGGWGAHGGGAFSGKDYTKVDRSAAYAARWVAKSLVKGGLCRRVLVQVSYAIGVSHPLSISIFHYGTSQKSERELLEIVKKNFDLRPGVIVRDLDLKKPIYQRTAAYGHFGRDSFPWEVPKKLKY

[7] = target: Protein-tyrosine kinase 2-beta (Homo sapiens, UniProt Q14289)
Protein-tyrosine kinase 2-beta, sequence (Q14289 whole entry): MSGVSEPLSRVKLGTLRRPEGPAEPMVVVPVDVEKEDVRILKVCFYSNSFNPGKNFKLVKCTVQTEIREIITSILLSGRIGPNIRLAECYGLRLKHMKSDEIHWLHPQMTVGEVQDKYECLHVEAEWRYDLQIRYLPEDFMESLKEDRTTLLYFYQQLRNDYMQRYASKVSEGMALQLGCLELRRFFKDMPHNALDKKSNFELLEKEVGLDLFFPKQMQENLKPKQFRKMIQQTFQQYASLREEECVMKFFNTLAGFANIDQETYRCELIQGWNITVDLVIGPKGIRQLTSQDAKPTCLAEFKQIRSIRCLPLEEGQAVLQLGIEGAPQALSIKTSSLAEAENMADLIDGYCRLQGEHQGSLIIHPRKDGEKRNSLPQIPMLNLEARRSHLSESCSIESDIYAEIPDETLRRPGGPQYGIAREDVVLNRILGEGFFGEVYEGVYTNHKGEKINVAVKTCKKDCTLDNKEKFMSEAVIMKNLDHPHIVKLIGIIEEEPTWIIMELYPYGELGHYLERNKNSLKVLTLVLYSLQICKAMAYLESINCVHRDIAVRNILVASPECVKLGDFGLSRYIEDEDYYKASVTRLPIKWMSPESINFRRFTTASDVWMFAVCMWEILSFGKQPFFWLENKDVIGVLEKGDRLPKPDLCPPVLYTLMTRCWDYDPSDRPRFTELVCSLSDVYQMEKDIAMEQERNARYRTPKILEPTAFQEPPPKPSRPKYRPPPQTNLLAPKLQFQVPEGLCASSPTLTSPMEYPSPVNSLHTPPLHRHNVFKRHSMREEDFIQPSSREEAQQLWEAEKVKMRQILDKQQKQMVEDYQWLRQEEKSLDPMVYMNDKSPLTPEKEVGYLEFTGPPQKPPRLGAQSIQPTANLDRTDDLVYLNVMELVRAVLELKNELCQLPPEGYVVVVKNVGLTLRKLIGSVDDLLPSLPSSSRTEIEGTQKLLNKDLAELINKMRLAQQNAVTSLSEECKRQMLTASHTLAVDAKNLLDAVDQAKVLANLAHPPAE

[8] = target: MAP kinase-activated protein kinase 2 (Homo sapiens, UniProt P49137)
MAP kinase-activated protein kinase 2, sequence (P49137 whole entry): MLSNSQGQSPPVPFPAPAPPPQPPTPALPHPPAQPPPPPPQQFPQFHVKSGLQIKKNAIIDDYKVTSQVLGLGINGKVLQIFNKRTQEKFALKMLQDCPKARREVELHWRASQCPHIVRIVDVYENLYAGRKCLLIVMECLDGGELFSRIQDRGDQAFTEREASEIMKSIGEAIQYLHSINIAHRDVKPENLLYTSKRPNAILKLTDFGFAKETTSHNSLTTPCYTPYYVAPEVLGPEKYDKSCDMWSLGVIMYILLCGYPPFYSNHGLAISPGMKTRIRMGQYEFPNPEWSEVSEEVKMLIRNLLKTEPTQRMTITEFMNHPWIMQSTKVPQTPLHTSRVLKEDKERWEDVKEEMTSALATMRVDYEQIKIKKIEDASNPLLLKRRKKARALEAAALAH

[9] = target: Protein kinase C beta type (Homo sapiens, UniProt P05771)
Protein kinase C beta type, sequence (P05771 whole entry): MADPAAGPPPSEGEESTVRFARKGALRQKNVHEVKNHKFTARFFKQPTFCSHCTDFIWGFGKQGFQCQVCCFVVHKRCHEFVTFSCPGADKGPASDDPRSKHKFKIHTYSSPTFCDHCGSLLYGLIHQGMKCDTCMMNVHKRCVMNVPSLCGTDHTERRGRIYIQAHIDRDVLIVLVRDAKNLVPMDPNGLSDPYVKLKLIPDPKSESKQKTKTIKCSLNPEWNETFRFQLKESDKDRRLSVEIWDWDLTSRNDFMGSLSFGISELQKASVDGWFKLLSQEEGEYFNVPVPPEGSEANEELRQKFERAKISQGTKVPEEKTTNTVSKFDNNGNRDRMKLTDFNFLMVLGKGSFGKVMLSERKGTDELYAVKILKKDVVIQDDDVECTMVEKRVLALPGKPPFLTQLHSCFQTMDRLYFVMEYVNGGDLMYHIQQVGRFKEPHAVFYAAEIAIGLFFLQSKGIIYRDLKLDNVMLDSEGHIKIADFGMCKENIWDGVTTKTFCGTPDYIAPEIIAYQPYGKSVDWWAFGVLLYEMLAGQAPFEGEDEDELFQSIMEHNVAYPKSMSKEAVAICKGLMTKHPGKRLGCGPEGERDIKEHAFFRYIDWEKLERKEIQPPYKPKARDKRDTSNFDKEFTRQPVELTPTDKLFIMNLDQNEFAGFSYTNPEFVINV

[10] = target: T3, Serine/threonine-protein kinase ICK (Homo sapiens, UniProt Q9UPZ9)
T3 sequence (Q9UPZ9 whole entry): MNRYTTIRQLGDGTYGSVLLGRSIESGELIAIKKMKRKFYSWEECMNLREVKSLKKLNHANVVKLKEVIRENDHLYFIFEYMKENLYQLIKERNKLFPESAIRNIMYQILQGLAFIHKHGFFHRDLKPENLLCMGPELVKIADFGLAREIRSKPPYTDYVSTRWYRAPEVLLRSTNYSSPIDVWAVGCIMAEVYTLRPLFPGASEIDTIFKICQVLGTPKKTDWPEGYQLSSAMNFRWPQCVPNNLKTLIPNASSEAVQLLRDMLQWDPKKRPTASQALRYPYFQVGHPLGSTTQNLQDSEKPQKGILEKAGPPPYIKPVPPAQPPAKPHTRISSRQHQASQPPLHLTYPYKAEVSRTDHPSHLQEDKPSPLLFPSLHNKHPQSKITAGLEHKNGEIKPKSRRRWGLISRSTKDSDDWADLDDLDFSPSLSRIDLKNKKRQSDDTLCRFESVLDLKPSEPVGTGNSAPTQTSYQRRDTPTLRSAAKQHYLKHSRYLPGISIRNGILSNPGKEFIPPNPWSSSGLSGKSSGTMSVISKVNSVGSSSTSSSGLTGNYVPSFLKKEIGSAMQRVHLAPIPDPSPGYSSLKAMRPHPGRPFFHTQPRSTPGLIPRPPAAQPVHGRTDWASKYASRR

[11] = target: Serine/threonine-protein kinase SIK2 (Homo sapiens, UniProt Q9H0K1)
Serine/threonine-protein kinase SIK2, sequence (Q9H0K1 whole entry): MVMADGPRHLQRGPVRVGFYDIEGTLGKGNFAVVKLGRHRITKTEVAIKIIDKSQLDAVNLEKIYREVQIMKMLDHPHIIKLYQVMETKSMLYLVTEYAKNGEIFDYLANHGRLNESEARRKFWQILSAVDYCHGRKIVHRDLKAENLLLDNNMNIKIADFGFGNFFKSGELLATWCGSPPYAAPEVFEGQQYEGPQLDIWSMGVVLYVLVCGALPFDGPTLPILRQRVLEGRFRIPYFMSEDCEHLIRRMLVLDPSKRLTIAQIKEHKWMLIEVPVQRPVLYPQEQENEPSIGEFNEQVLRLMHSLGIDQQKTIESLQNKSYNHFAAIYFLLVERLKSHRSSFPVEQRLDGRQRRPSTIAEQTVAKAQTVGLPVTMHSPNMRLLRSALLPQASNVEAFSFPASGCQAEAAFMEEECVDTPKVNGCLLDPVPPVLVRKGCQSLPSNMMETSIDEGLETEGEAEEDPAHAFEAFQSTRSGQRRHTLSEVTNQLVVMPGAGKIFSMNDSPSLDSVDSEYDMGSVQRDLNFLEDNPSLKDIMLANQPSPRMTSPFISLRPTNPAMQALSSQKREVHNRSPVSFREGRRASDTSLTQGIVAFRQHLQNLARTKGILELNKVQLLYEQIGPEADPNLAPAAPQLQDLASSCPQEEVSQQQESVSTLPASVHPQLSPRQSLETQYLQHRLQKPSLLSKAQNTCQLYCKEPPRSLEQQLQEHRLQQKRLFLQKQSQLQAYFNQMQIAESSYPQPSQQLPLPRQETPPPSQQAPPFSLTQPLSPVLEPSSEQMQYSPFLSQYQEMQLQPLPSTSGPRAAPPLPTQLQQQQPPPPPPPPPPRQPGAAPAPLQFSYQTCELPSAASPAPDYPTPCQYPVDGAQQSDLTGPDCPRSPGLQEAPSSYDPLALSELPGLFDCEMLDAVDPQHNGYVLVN
Also: in the data inactive means no Kd found up to 30 µM.

| SMILES | Kd [1] | Kd [2] | Kd [3] | Kd [4] | Kd [5] | Kd [6] | Kd [7] | Kd [8] | Kd [9] | Kd [10] | Kd [11] |
| --- | --- | --- | --- | --- | --- | --- | --- | --- | --- | --- | --- |
| COCCN1CCN(Cc2ccc(-c3n[nH]c4c3C(=O)c3c(NC(=O)NN5CCOCC5)cccc3-4)cc2)CC1 [RGB-286638] | > 30 µM (inactive) | > 30 µM (inactive) | 0.007 µM (active) | > 30 µM (inactive) | 1.05 µM (active) | > 30 µM (inactive) | > 30 µM (inactive) | > 30 µM (inactive) | > 30 µM (inactive) | 0.008 µM (active) | 0.207 µM (active) |
| CNC(=O)c1ccc(Nc2ncc(C(F)(F)F)c(NCc3nccnc3N(C)S(C)(=O)=O)n2)cc1 [DEFACTINIB] | 2.45 µM (active) | > 30 µM (inactive) | 1.46 µM (active) | > 30 µM (inactive) | > 30 µM (inactive) | > 30 µM (inactive) | 0.423 µM (active) | > 30 µM (inactive) | > 30 µM (inactive) | > 30 µM (inactive) | > 30 µM (inactive) |
| C=CC(=O)Nc1cccc(Nc2nc(Nc3ccc(N4CCN(C(C)=O)CC4)cc3OC)ncc2C(F)(F)F)c1 [ROCILETINIB] | > 30 µM (inactive) | > 30 µM (inactive) | > 30 µM (inactive) | > 30 µM (inactive) | > 30 µM (inactive) | > 30 µM (inactive) | > 30 µM (inactive) | > 30 µM (inactive) | > 30 µM (inactive) | > 30 µM (inactive) | > 30 µM (inactive) |
| Cc1ccc(C(=O)Nc2ccc(Oc3cc4cnn(C)c4cc3-c3cn[nH]c3)c(F)c2)c(=O)n1-c1ccc(F)cc1 [MERESTINIB] | > 30 µM (inactive) | > 30 µM (inactive) | > 30 µM (inactive) | > 30 µM (inactive) | > 30 µM (inactive) | > 30 µM (inactive) | > 30 µM (inactive) | > 30 µM (inactive) | > 30 µM (inactive) | > 30 µM (inactive) | > 30 µM (inactive) |
| O=C(O)c1ccc2c(c1)nc(Nc1cccc(Cl)c1)c1ccncc12 [SILMITASERTIB] | > 30 µM (inactive) | > 30 µM (inactive) | 17.3 µM (active) | > 30 µM (inactive) | 1.71 µM | > 30 µM (inactive) | > 30 µM (inactive) | 5.3 µM (active) | > 30 µM (inactive) | 0.884 µM (active) | > 30 µM (inactive) |
| Cc1c(Cn2c(C)nc3c(C(=O)O)cc(N4CCOCC4)cc32)cccc1C(F)(F)F [GSK-2636771] | > 30 µM (inactive) | > 30 µM (inactive) | > 30 µM (inactive) | > 30 µM (inactive) | > 30 µM (inactive) | > 30 µM (inactive) | > 30 µM (inactive) | > 30 µM (inactive) | > 30 µM (inactive) | > 30 µM (inactive) | > 30 µM (inactive) |
| Cn1cc(-c2[nH]c3cc(NC(=O)[C@H](N)C4CCCCC4)cc4c3c2C=NNC4=O)cn1 | > 30 µM (inactive) | > 30 µM (inactive) | > 30 µM (inactive) | 0.814 µM (active) | > 30 µM (inactive) | > 30 µM (inactive) | > 30 µM (inactive) | > 30 µM (inactive) | > 30 µM (inactive) | > 30 µM (inactive) | 0.047 µM (active) |
| NC(=O)c1ccc(N(C(N)=O)c2c(F)cccc2F)nc1-c1ccc(F)cc1F [VX-702] | > 30 µM (inactive) | > 30 µM (inactive) | > 30 µM (inactive) | > 30 µM (inactive) | > 30 µM (inactive) | > 30 µM (inactive) | > 30 µM (inactive) | 0.0003 µM (active) | > 30 µM (inactive) | > 30 µM (inactive) | > 30 µM (inactive) |
| COc1cc2ncnc(Nc3ccc(F)c(Cl)c3)c2cc1NC(=O)/C=C/CN1CCCCC1 [DACOMITINIB ANHYDROUS] | > 30 µM (inactive) | > 30 µM (inactive) | > 30 µM (inactive) | > 30 µM (inactive) | > 30 µM (inactive) | > 30 µM (inactive) | > 30 µM (inactive) | > 30 µM (inactive) | > 30 µM (inactive) | > 30 µM (inactive) | > 30 µM (inactive) |
